Source: patent publication US12415786B2, “Substituted 2-heteroarylaminobenzenes and the salts thereof and their use as herbicidal agents” (Bayer Aktiengesellschaft, priority 2019, dated 2025)

Tests used:
Assay type in all cases: in vivo
Poa annua [1] = test: Herbicidal pre-emergence action (greenhouse pots), POAAN; conditions: 1280 g/ha, visual scoring after about 3 weeks vs untreated controls
Outline: (§1)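 Visual % activity (0 = like untreated, 100 = plants dead) scored about 3 weeks after treatment. Sandy loam pots were doubly sown with one monocot and one dicot species each. WP/EC formulations at 1280 g/ha were sprayed onto the soil surface in 600 L/ha water containing 0.5% additive.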

Echinochloa crus-galli [2] = test: Herbicidal post-emergence action (greenhouse pots), ECHCG; conditions: 1280 g/ha, rated after about 3 weeks, 100% = plants have died, 0% = like untreated control plants
Outline: (§2)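 Foliar application to potted greenhouse weeds at the one-leaf stage used 1280 g/ha in 600 L/ha water with 0.5% additive (WP or EC). Plants then stayed under optimum conditions about 3 weeks before visual rating, where 100% meant death and 0% matched untreated.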

Poa annua [3] = test: Herbicidal early post-emergence action (96-well microtiter plates), POAAN; conditions: 1900 g/ha, scored 9 to 12 days after treatment, 100% = plants have died, 0% = like untreated control plants
Outline: (§3)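 Activity was scored by eye 9 to 12 days after treatment (100% = plants dead, 0% = like untreated controls). Spraying used emulsion concentrates at 1900 g/ha in 2200 L/ha water, applied to cotyledon-stage seedlings raised 5 to 7 days in quartz sand in 96-well plates under controlled conditions.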

Stellaria media [4] = test: Herbicidal pre-emergence action (greenhouse pots), STEME; conditions: 1280 g/ha, visual scoring after about 3 weeks vs untreated controls
Outline: as §1

Lolium rigidum [5] = test: Herbicidal pre-emergence action (greenhouse pots), LOLRI; conditions: 1280 g/ha, visual scoring after about 3 weeks vs untreated controls
Outline: as §1

Agrostis tenuis = test: Herbicidal early post-emergence action (96-well microtiter plates), AGSTE; conditions: 1900 g/ha, scored 9 to 12 days after treatment, 100% = plants have died, 0% = like untreated control plants
Outline: as §3

Echinochloa crus-galli [6] = test: Herbicidal pre-emergence action (greenhouse pots), ECHCG; conditions: 1280 g/ha, visual scoring after about 3 weeks vs untreated controls
Outline: as §1

Matricaria inodora [7] = test: Herbicidal post-emergence action (greenhouse pots), MATIN; conditions: 1280 g/ha, visual rating about 3 weeks after treatment vs untreated controls
Excerpt: (§4) In the examples and tables below, the following abbreviations are used: • Undesired Plants/Weeds: • ABUTH: Abutilon theophrasti • AGSTE: Agrostis tenuis • AMARE Amaranthus retroflexus • ECHCG: Echinochloa crus-galli • LOLRI: Lolium rigidum • MATIN: Matricaria inodora • POAAN: Poa annua • SETVI: Setaria viridis • STEME: Stellaria media A. Herbicidal Early Post-Emergence Action Seeds of mono- and dicotyledonous weed plants were placed in plastic pots in sandy loam soil (doubly sown with in each case one species of mono- or dicotyledonous weed plants per pot), covered with soil and cultivated in a greenhouse under controlled growth conditions. 2 to 3 weeks after sowing, the test plants were treated at the one-leaf stage. The compounds of the invention, formulated in the form of wettable powders (WP) or as emulsion concentrates (EC), were applied onto the green parts of the plants as aqueous suspension or emulsion with addition of 0.5% additive at a water application rate of 600 liters per hectare (converted). After the test plants had been kept in the greenhouse under optimum growth conditions for about 3 weeks, the activity of the preparations was rated visually in comparison to untreated controls. For example, 100% activity=the plants have died, 0% activity=like untreated control plants. Tables B1-B8 below show the effects of selected compounds of the general formula (I) according to Table 1 above on various harmful plants and an application rate corresponding to 1280 g/ha, which were obtained by the experimental procedure mentioned above.

Setaria viridis [8] = test: Herbicidal pre-emergence action (greenhouse pots), SETVI; conditions: 1280 g/ha, visual scoring after about 3 weeks vs untreated controls
Outline: as §1

Amaranthus retroflexus [9] = test: Herbicidal pre-emergence action (greenhouse pots), AMARE; conditions: 1280 g/ha, visual scoring after about 3 weeks vs untreated controls
Outline: as §1

Abutilon theophrasti [10] = test: Herbicidal post-emergence action (greenhouse pots), ABUTH; conditions: 1280 g/ha, visual rating about 3 weeks after treatment vs untreated controls
Outline: as §2

Abutilon theophrasti [11] = test: Herbicidal pre-emergence action (greenhouse pots), ABUTH; conditions: 1280 g/ha, visual scoring after about 3 weeks vs untreated controls
Outline: as §1

Amaranthus retroflexus [12] = test: Herbicidal post-emergence action (greenhouse pots), AMARE; conditions: 1280 g/ha, visual rating about 3 weeks after treatment vs untreated controls
Outline: as §2

Matricaria inodora [13] = test: Herbicidal pre-emergence action (greenhouse pots), MATIN; conditions: 1280 g/ha, visual scoring after about 3 weeks vs untreated controls
Outline: as §1

Lolium rigidum [14] = test: Herbicidal post-emergence action (greenhouse pots), LOLRI; conditions: 1280 g/ha, rated after about 3 weeks, 100% = plants have died, 0% = like untreated control plants
Excerpt: as §4

Stellaria media [15] = test: Herbicidal post-emergence action (greenhouse pots), STEME; conditions: 1280 g/ha, visual rating about 3 weeks after treatment vs untreated controls
Outline: as §2

Poa annua [16] = test: Herbicidal post-emergence action (greenhouse pots), POAAN; conditions: 1280 g/ha, visual rating about 3 weeks after treatment vs untreated controls
Outline: as §2

Setaria viridis [17] = test: Herbicidal post-emergence action (greenhouse pots), SETVI; conditions: 1280 g/ha, rated after about 3 weeks, 100% = plants have died, 0% = like untreated control plants
Outline: as §2

N#Cc1cccc(Nc2ncc(F)cn2)c1Oc1ccc(F)c(F)c1 [Example 1-272]
100%: herbicidal activity POAAN (Poa annua [1]) | ECHCG (herbicidal activity, rated visually in comparison to untreated controls) (Echinochloa crus-galli [2]) | POAAN (herbicidal activity, scored visually in comparison to untreated controls) (Poa annua [3]) | herbicidal activity STEME (Stellaria media [4]) | herbicidal activity LOLRI (Lolium rigidum [5]) | AGSTE (herbicidal activity, scored visually in comparison to untreated controls) (Agrostis tenuis) | herbicidal activity ECHCG (Echinochloa crus-galli [6]) | herbicidal activity MATIN (Matricaria inodora [7]) | herbicidal activity SETVI (Setaria viridis [8]) | herbicidal activity AMARE (Amaranthus retroflexus [9]) | herbicidal activity ABUTH (Abutilon theophrasti [10]) | herbicidal activity ABUTH (Abutilon theophrasti [11]) | herbicidal activity AMARE (Amaranthus retroflexus [12]) | herbicidal activity MATIN (Matricaria inodora [13]) | LOLRI (herbicidal activity, rated visually in comparison to untreated controls) (Lolium rigidum [14]) | herbicidal activity STEME (Stellaria media [15]) | herbicidal activity POAAN (Poa annua [16]) | SETVI (herbicidal activity, rated visually in comparison to untreated controls) (Setaria viridis [17])
